Values of other authors as cited in publication PMC10366102, “Dose escalation and expansion cohorts in patients with advanced breast cancer in a Phase I study of the CDK7-inhibitor samuraciclib” (Nature Communications, 2023).

What was measured:
[1] = system: PIK3CA-mutated HR+ advanced breast cancer; set-up: method as in PMID 33794206; settings: PIK3CA mutation, post CDK4/6 inhibitor; cited from earlier work
[2] = system: HR+ metastatic breast cancer; set-up: method as in PMID 33230905; settings: after CDK4/6 inhibitor; cited from earlier work

SMILES | Median PFS [1] [months] | Median duration of treatment [2] [months]
Cc1nc(NC(=O)N2CCC[C@H]2C(N)=O)sc1-c1ccnc(C(C)(C)C(F)(F)F)c1 [Alpelisib] | 7.3 | 
CO[C@H]1C[C@@H]2CC[C@@H](C)[C@@](O)(O2)C(=O)C(=O)N2CCCC[C@H]2C(=O)O[C@H]([C@H](C)C[C@@H]2CC[C@@H](OCCO)[C@H](OC)C2)CC(=O)[C@H](C)/C=C(\C)[C@@H](O)[C@@H](OC)C(=O)[C@H](C)C[C@H](C)/C=C/C=C/C=C/1C [everolimus] |  | 3.6
